Results reported in US10954269B2, “Anti-inflammatory tripeptides” (Dr. August Wolff Gmbh & Co. KG Arzneimittel, priority 2013, dated 2021).

Key:
Conditions in all cases: substance 10^−9M
[1] = system: primary murine T-cells; test: Cytokine secretion on protein level in activated primary murine T-cells (13-plex FACS / Luminex, supernatant); format: cell-based, C57BL/6 mice
Outline: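 T-cells from secondary lymphatic organs of naïve C57BL/6 mice, stimulated with PMA/Ionomycin or IFN-γ; supernatant cytokines measured by 13-plex FACS 48 h and 72 h after stimulation. In another run, PMA/Ionomycin-stimulated cells received compounds at 10^−7, 10^−9 and 10^−11 M, with IFN-γ, IL-17 and IL-10 measured by Luminex.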

[2] = system: primary human T-cells; test: Cytokine secretion on protein level in activated primary human T-cells (13-plex FACS / Luminex, supernatant); format: cell-based
Outline: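 Primary T-cells from peripheral blood of healthy volunteers, or HaCaT cells, were activated with PMA/Ionomycin or IFN-γ for 48 h and treated with tripeptides. Supernatants were collected 48 h and 72 h after stimulation and cytokines (IL-1, IL-2, IL-6, IL-12p70, IL-17, IFN-γ, TNF-α) were measured by 13-plex FACS.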

[3] = system: human keratinocyte cell line (HaCaT); test: Cytokine secretion on protein level in activated human keratinocyte cell line HaCaT (13-plex FACS / Luminex, supernatant); format: cell-based
Outline: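 First, T-cells are isolated from healthy donors' blood. Next, they and HaCaT keratinocytes are activated for 48 h with PMA/Ionomycin or IFN-γ in the presence of tripeptides. Finally, secreted cytokines are quantified in supernatants by 13-plex FACS at 48 and 72 h.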

[4] = primary murine T-cells stimulated with IFN-γ
[5] = primary murine T-cells stimulated with PBS
[6] = primary murine T-cells stimulated with PMA/Ionomycin
[7] = primary human T-cells stimulated with IFN-γ
[8] = primary human T-cells stimulated with PBS
[9] = primary human T-cells stimulated with PMA/Ionomycin
[10] = HaCaT stimulated with PMA/Ionomycin

Work on “N^α,N^α-dimethyl-(L)-Lys-(D)-Pro-N^α-methyl-(L)-Thr-NH2 [Example 4]” yielded an IL-1 cytokine concentration [1, 4] of 100.01 pg/mL, an IL-2 cytokine concentration [1, 4] of 206.76 pg/mL and an IL-4 cytokine concentration [1, 4] of 0 pg/mL. For the same substance, the IL-5 cytokine concentration [1, 4] was 486.86 pg/mL, the IL-6 cytokine concentration [1, 4] was 235.86 pg/mL and the IL-10 cytokine concentration [1, 4] was 1250.21 pg/mL. The IL-13 cytokine concentration [1, 4] was 0 pg/mL, the IL-17 cytokine concentration [1, 4] was 92.71 pg/mL and the IL-21 cytokine concentration [1, 4] was 814.33 pg/mL. The IL-22 cytokine concentration [1, 4] was 114.68 pg/mL, the IL-27 cytokine concentration [1, 4] was 138.81 pg/mL and the TNF-α cytokine concentration [1, 4] was 47.36 pg/mL. For the same substance, the IFN-γ cytokine concentration [1, 5] was 2456.98 pg/mL, the IL-1 cytokine concentration [1, 5] was 78.5 pg/mL and the IL-2 cytokine concentration [1, 5] was 147.3 pg/mL. For the same substance, the IL-4 cytokine concentration [1, 5] was 119.19 pg/mL, the IL-5 cytokine concentration [1, 5] was 377.16 pg/mL and the IL-6 cytokine concentration [1, 5] was 189.26 pg/mL. It also gave an IL-10 cytokine concentration [1, 5] of 1006.65 pg/mL, an IL-13 cytokine concentration [1, 5] of 0 pg/mL and an IL-17 cytokine concentration [1, 5] of 0 pg/mL. The IL-21 cytokine concentration [1, 5] was 330.42 pg/mL, the IL-22 cytokine concentration [1, 5] was 84.16 pg/mL and the IL-27 cytokine concentration [1, 5] was 329.85 pg/mL. For the same substance, the TNF-α cytokine concentration [1, 5] was 18.91 pg/mL, the IFN-γ cytokine concentration [1, 6] was 3234.33 pg/mL and the IL-1 cytokine concentration [1, 6] was 196.76 pg/mL. For the same substance, the IL-2 cytokine concentration [1, 6] was 292.52 pg/mL, the IL-4 cytokine concentration [1, 6] was 123.15 pg/mL and the IL-5 cytokine concentration [1, 6] was 465.44 pg/mL. For the same substance, the IL-6 cytokine concentration [1, 6] was 245.96 pg/mL, the IL-10 cytokine concentration [1, 6] was 1383.24 pg/mL and the IL-13 cytokine concentration [1, 6] was 0 pg/mL. For the same substance, the IL-17 cytokine concentration [1, 6] was 391.98 pg/mL, the IL-21 cytokine concentration [1, 6] was 987.02 pg/mL and the IL-22 cytokine concentration [1, 6] was 48.93 pg/mL. For the same substance, the IL-27 cytokine concentration [1, 6] was 80.01 pg/mL, the TNF-α cytokine concentration [1, 6] was 62.85 pg/mL and the IL-1 cytokine concentration [2, 7] was 366.09 pg/mL. For the same substance, the IL-2 cytokine concentration [2, 7] was 326.11 pg/mL, the IL-4 cytokine concentration [2, 7] was 176.6 pg/mL and the IL-5 cytokine concentration [2, 7] was 27.34 pg/mL. For the same substance, the IL-6 cytokine concentration [2, 7] was 180.43 pg/mL, the IL-9 cytokine concentration [2, 7] was 10.84 pg/mL and the IL-10 cytokine concentration [2, 7] was 75.72 pg/mL. For the same substance, the IL-12p70 cytokine concentration [2, 7] was 0 pg/mL, the IL-13 cytokine concentration [2, 7] was 212.64 pg/mL and the IL-17 cytokine concentration [2, 7] was 162.73 pg/mL. For the same substance, the IL-22 cytokine concentration [2, 7] was 0 pg/mL, the TNF-α cytokine concentration [2, 7] was 103.24 pg/mL and the IL-1 cytokine concentration [2, 8] was 122.89 pg/mL. The IL-2 cytokine concentration [2, 8] was 0 pg/mL, the IL-4 cytokine concentration [2, 8] was 60.49 pg/mL and the IL-5 cytokine concentration [2, 8] was 0 pg/mL. The IL-6 cytokine concentration [2, 8] was 226.2 pg/mL, the IL-9 cytokine concentration [2, 8] was 3.71 pg/mL and the IL-10 cytokine concentration [2, 8] was 0 pg/mL. The IL-12p70 cytokine concentration [2, 8] was 0 pg/mL, the IL-13 cytokine concentration [2, 8] was 0 pg/mL and the IL-17 cytokine concentration [2, 8] was 0 pg/mL. The IL-22 cytokine concentration [2, 8] was 0 pg/mL, the INF-α cytokine concentration [2, 8] was 0 pg/mL and the TNF-α cytokine concentration [2, 8] was 0 pg/mL. For the same substance, the IL-1 cytokine concentration [2, 9] was 689.99 pg/mL, the IL-2 cytokine concentration [2, 9] was 1227.93 pg/mL and the IL-4 cytokine concentration [2, 9] was 239.37 pg/mL. It also gave an IL-5 cytokine concentration [2, 9] of 473.23 pg/mL, an IL-6 cytokine concentration [2, 9] of 1280 pg/mL and an IL-9 cytokine concentration [2, 9] of 239.43 pg/mL. It also gave an IL-10 cytokine concentration [2, 9] of 417.95 pg/mL, an IL-12p70 cytokine concentration [2, 9] of 0 pg/mL and an IL-13 cytokine concentration [2, 9] of 1081.09 pg/mL. For the same substance, the IL-17 cytokine concentration [2, 9] was 1356.78 pg/mL, the IL-22 cytokine concentration [2, 9] was 0 pg/mL and the INF-α cytokine concentration [2, 9] was 5384.11 pg/mL. The TNF-α cytokine concentration [2, 9] was 4112.99 pg/mL, the IL-1 cytokine concentration ([3]; HaCaT stimulated with IFN-γ) was 0 pg/mL and the IL-2 cytokine concentration ([3]; HaCaT stimulated with IFN-γ) was 0 pg/mL. It also gave an IL-4 cytokine concentration ([3]; HaCaT stimulated with IFN-γ) of 0 pg/mL, an IL-5 cytokine concentration ([3]; HaCaT stimulated with IFN-γ) of 0 pg/mL and an IL-6 cytokine concentration ([3]; HaCaT stimulated with IFN-γ) of 224.07 pg/mL. For the same substance, the IL-9 cytokine concentration ([3]; HaCaT stimulated with IFN-γ) was 0 pg/mL, the IL-10 cytokine concentration ([3]; HaCaT stimulated with IFN-γ) was 0 pg/mL and the IL-12p70 cytokine concentration ([3]; HaCaT stimulated with IFN-γ) was 0 pg/mL. It also gave an IL-13 cytokine concentration ([3]; HaCaT stimulated with IFN-γ) of 0 pg/mL, an IL-17 cytokine concentration ([3]; HaCaT stimulated with IFN-γ) of 13.16 pg/mL and an IL-22 cytokine concentration ([3]; HaCaT stimulated with IFN-γ) of 0 pg/mL. The TNF-α cytokine concentration ([3]; HaCaT stimulated with IFN-γ) was 0 pg/mL, the IFN-γ cytokine concentration ([3]; HaCaT stimulated with PBS) was 0 pg/mL and the IL-1 cytokine concentration ([3]; HaCaT stimulated with PBS) was 0 pg/mL. The IL-2 cytokine concentration ([3]; HaCaT stimulated with PBS) was 18.85 pg/mL, the IL-4 cytokine concentration ([3]; HaCaT stimulated with PBS) was 109.04 pg/mL and the IL-5 cytokine concentration ([3]; HaCaT stimulated with PBS) was 0 pg/mL. The IL-6 cytokine concentration ([3]; HaCaT stimulated with PBS) was 80.55 pg/mL, the IL-9 cytokine concentration ([3]; HaCaT stimulated with PBS) was 2.87 pg/mL and the IL-10 cytokine concentration ([3]; HaCaT stimulated with PBS) was 61.87 pg/mL. For the same substance, the IL-12p70 cytokine concentration ([3]; HaCaT stimulated with PBS) was 0 pg/mL, the IL-13 cytokine concentration ([3]; HaCaT stimulated with PBS) was 123.68 pg/mL and the IL-17 cytokine concentration ([3]; HaCaT stimulated with PBS) was 12.85 pg/mL. The IL-22 cytokine concentration ([3]; HaCaT stimulated with PBS) was 0 pg/mL, the TNF-α cytokine concentration ([3]; HaCaT stimulated with PBS) was 0 pg/mL and the IFN-γ cytokine concentration [3, 10] was 39.23 pg/mL. The IL-1 cytokine concentration [3, 10] was 0 pg/mL, the IL-2 cytokine concentration [3, 10] was 0 pg/mL and the IL-4 cytokine concentration [3, 10] was 0 pg/mL. It also gave an IL-5 cytokine concentration [3, 10] of 16.77 pg/mL, an IL-6 cytokine concentration [3, 10] of 225.53 pg/mL and an IL-9 cytokine concentration [3, 10] of 0 pg/mL. For the same substance, the IL-10 cytokine concentration [3, 10] was 97.56 pg/mL, the IL-12p70 cytokine concentration [3, 10] was 0 pg/mL and the IL-13 cytokine concentration [3, 10] was 0 pg/mL. It also gave an IL-17 cytokine concentration [3, 10] of 28.83 pg/mL, an IL-22 cytokine concentration [3, 10] of 0 pg/mL and a TNF-α cytokine concentration [3, 10] of 3.93 pg/mL.
